One test has as its system rat aortas. Nature of the test: Contraction of rat aortas induced by potassium depolarization (hyperpotassium medium). Set-up: species or system WISTAR rat. The settings on record: read-out: IC50 (concentration inhibiting by 50% the contraction of rat aortas induced by potassium depolarization). The source says:
The rings are linked to a STATHAM tension sensor (UC2-GOULD).

In test [1] the test system is rabbit aorta. As to the kind of experiment: Contraction of rabbit aorta induced by noradrenaline in a normal physiological medium. Also on record: species or system New Zealand rabbit. The note with it: Oryctolagus cuniculus, noradrenaline 10^-6 M, read-out: IC50, noradrenaline stimulus. The procedure:
(§1) Studies are carried out on rings, 3 mm in length, […] The vascular rings are immersed in a normal physiological solution or in a physiological solution lacking calcium (+0.2 mM of the chelating agent EGTA), which is thermostatically regulated at 37° C. and aerated with a 95% O2 +5% CO2 mixture. The rings are linked to a STATHAM tension sensor (UC2-GOULD). The optimal tension for each vessel is applied and a stabilization period of 90 min is observed for the preparations. a) Antivasoconstrictive activity of the compounds of the invention in a physiological medium.

The test system of a further test is rabbit mesenteric artery. Nature of the test: Contraction of rabbit mesenteric artery induced by electrical stimulation. Also on record: species or system New Zealand rabbit. The note with it: Oryctolagus cuniculus, normal physiological medium. The protocol:
as §1

Test [2] concerns rabbit aorta. Nature of the test: Contraction of rabbit aorta induced by endothelin in a normal physiological medium. Set-up: species or system New Zealand rabbit. The note with it: Oryctolagus cuniculus, read-out: IC50, endothelin stimulus. The protocol: as §1
In test [3] the test system is rabbit aorta. Nature of the test: Contraction of rabbit aorta induced by phorbol ester in a normal physiological medium. Also on record: species or system New Zealand rabbit. The note with it: Oryctolagus cuniculus, TPA 10^-5 M, read-out: IC50, phorbol ester stimulus. The protocol:
as §1

The test system of test [4] is rabbit aorta. As to the kind of experiment: Vascular contraction of rabbit aorta induced by PDGF. Set-up: species or system New Zealand rabbit. The settings on record: Oryctolagus cuniculus, 10^-5 M, preincubated 15 minutes. The procedure: as §1
For the next test, the system named is pig coronary artery. As to the kind of experiment: Vascular contraction of pig coronary artery induced by acetylcholine. The settings on record: Sus scrofa, 10^-5 M, preincubated 15 minutes. The procedure: Studies are carried out on rings, 3 mm in length, - or of coronary arteries from pigs anesthetized with nesdonal (8 mg/kg intravenously). The vascular rings are immersed in a normal physiological solution or in a physiological solution lacking calcium (+0.2 mM of the chelating agent EGTA), which is thermostatically regulated at 37° C. and aerated with a 95% O2 +5% CO2 mixture. The rings are linked to a STATHAM tension sensor (UC2-GOULD). The optimal tension for each vessel is applied and a stabilization period of 90 min is observed for the preparations. a) Antivasoconstrictive activity of the compounds of the invention in a physiological medium.

Test [5] concerns rabbit aorta. Nature of the test: Contraction of rabbit aorta induced by endothelin in a medium without calcium. Also on record: species or system New Zealand rabbit. The settings on record: Oryctolagus cuniculus, 10^-5 M, medium lacking calcium. The protocol:
(§2) Studies are carried out on rings, 3 mm in length, […] The vascular rings are immersed in a normal physiological solution or in a physiological solution lacking calcium (+0.2 mM of the chelating agent EGTA), which is thermostatically regulated at 37° C. and aerated with a 95% O2 +5% CO2 mixture. The rings are linked to a STATHAM tension sensor (UC2-GOULD). The optimal tension for each vessel is applied and a stabilization period of 90 min is observed for the preparations. b) Antivasoconstrictive activity of the compounds of the invention in a medium without calcium.

The test system of test [6] is rabbit aorta. Nature of the test: Contraction of rabbit aorta induced by phorbol ester in a medium without calcium. Also on record: species or system New Zealand rabbit. The settings on record: Oryctolagus cuniculus, 10^-5 M, medium lacking calcium. The protocol:
as §2

The next test concerns Rabbit iliac artery. Nature of the test: Contraction of rabbit iliac artery induced by caffeine in a medium without calcium. Set-up: species or system New Zealand rabbit. The settings on record: Oryctolagus cuniculus, 10^-5 M, medium lacking calcium. The protocol: as §2
The next test concerns guinea pig left auricle. Nature of the test: Veratridine intoxication of guinea pig left auricle. The settings on record: compound 10^-5 M. The procedure: a) Effect of the compounds of the invention on the intoxication of guinea pig left auricle.
The left auricles are removed from guinea pigs (350-450 g) anesthetized with sodium pentobarbital (30 mg/kg). The auricles are attached to a STATHAM tension sensor (UC2-GOULD) and the initial tension applied is 0.5 grams.
The auricles are electrically stimulated at 1 Hz by means of platinum electrodes. The intoxications are produced either by the addition of ouabain (10^-6 M) or by the addition of veratridine (10^-5 M). The test compounds are added 15 minutes before adding the toxic agent.

The test system of test [7] is pressor effects of phenylephrine, angiotensin II and vasopressin. Nature of the test: Cardiovascular reactivity to vasopressors in wakeful rats, intravenous administration. The test is classed as in vivo, WISTAR rat. The note with it: 10 mg/kg intravenously. The procedure:
a) Effects of the compounds of the invention, administered intravenously, on cardiovascular reactivity to various vasopressors.
After a 30 to 60 min period of stabilization of wakeful WISTAR rats, a range of concentrations of phenylephrine (between 0 and 16 μg/kg) is injected intravenously.
Reading of the mean blood pressure and heart rate is carried out at the point where the pressor effect reaches its maximum. After a washing time of at least 2 hours, the test compound is administered intravenously (10 mg/kg) followed 15 minutes later by a new range of phenylephrine.
The same procedure is used to study the compounds of the invention for the pressor effects induced by angiotensin II (0 to 200 ng/kg) and vasopressin (0 to 200 ng/kg). These studies are carried out on different groups of animals.

The test system of another test is reperfusion arrhythmias. As to the kind of experiment: Reperfusion arrhythmias after coronary ligature in rats. The note with it: 2 mg/kg intravenous. The format is in vivo, WISTAR rat. The procedure:
C/ Action of the compounds of the invention on reperfusion arrhythmias.
A thoracotomy and a coronary ligature are carried out on WISTAR rats. After stabilization for 10 min, 2 mg/kg of the test compound are administered intravenously. The blood pressure, the heart rate and the electrocardiogram are recorded. Five minutes after injecting the product, the coronary ligature is tightened.
After 5 minutes of stenosis, the ligature is removed and the electrocardiogram as well as the blood pressure are recorded for 10 consecutive minutes. The delay in the appearance of the various rhythm disorders as well as the mortality are measured.

Test [8] deals with smooth muscle cells of the aorta. Nature of the test: Proliferation rate after endothelial denudation of the aorta (3H-thymidine incorporation). The test is classed as in vivo, WISTAR rat. The note with it: 10 mg/kg orally, daily. The procedure:
D/ Effect of the compounds of the invention on the proliferation rate after endothelial denudation. […] After pretreatment for 6 days (J6), denudation of the aortic endothelium of the animals is performed according to the following method: After anesthetizing the animal with methohexital (Brietal, 60 mg/kg intraperitoneally), an embolectomy probe (Fogarty 2F) is introduced into the aorta through the left carotid. Aortic deendothelialization is achieved by three successive passages of the probe. Three days after the endothelial denudation (J9), the rats are sacrificed and the aorta is removed, incubated in a physiological solution for 1 hour at 37° C., and then transferred into a ^3 H-thymidine-enriched Krebs- Henseleit solution (specific activity: […]) for 1 hour at 37° C. This is followed by a one-hour post-incubation in a Krebs-Henseleit solution lacking ^3 H-thymidine. After washing in a Tris-EDTA buffer, the proliferation rate is calculated from the incorporation of 3H-thymidine. [drawing 17]
In general terms: Incorporation of labelled thymidine or its analogues reports DNA synthesis.

pIC50: −log10 of the molar value.

With `CN(CC1CCN(CCCOc2ccc(F)cc2)CC1)S(=O)(=O)c1cccc2cnccc12.Cl.Cl` [Example 17, N-Methyl-N-{[1-[3-(p-fluorophenoxy)propyl]-4-piperidyl]methyl}-5-isoquinolinesulfonamide dihydrochloride], the pIC50 is 5.82 in the test with rat aortas; 5.82 in the test with rabbit aorta [1]; 7.00 with rabbit mesenteric artery; 5.48 with rabbit aorta [2]; 4.68 with rabbit aorta [3]. The inhibition at 10 µM in the test with rabbit aorta [4] worked out at 30%; in the test with pig coronary artery, 64%; in the test with rabbit aorta [5], 67%; in the test with rabbit aorta [6], 35%; in the test on Rabbit iliac artery, 63%. Further, the “% contraction” value is on record as 218.8 ± 50.8% in the test with guinea pig left auricle (5 min), 181 ± 51% in the test with guinea pig left auricle (15 min) and 157.1 ± 42.6% in the test on guinea pig left auricle (60 min). For the same molecule, the “Contracture (%)” value in the test with guinea pig left auricle (15 min), with guinea pig left auricle (30 min) and in the test on guinea pig left auricle (60 min) was 0% each time. For the same molecule, in [7], the “reduction of the pressure effect of phenylephrine” value was 81%. Further, the “delay in the appearance of ventricular extrasystoles and tachycardias” value in the test on reperfusion arrhythmias is “very substantially delays the appearance of ventricular extrasystoles and tachycardias”. Moreover, the “prevention of the appearance of ventricular fibrillations” value in the test with reperfusion arrhythmias is given as 100%. The mortality rate entry in the test with reperfusion arrhythmias (control 4 deaths out of 9) is reported as “zero”. Further, the “reduction of the proliferation of smooth muscle cells” value in test [8] worked out at 40%.

What is called inhibition is how much of the control response was suppressed.

For the origin of these results see patent publication US5208243A, “5-isoquinolinesulfonamides” (Adir et Compagnie, priority 1991, dated 1993).
